In patent US20250152623A1, “Compositions and kits for use in wound healing, tissue regeneration and/or bone regeneration” (priority 2022, published 2025):
Where two headings read alike, the source gives them in different places.

Tests used:
[1] = system: human primary fibroblasts obtained from human oral mucosa; type: cell-based; details: 0.256 mg/mL calcium peroxide as single substance; cytotoxicity = more than 30% reduction (ISO 10993-5); FIG. 1
Method: (§1) To investigate the cytotoxicity of calcium peroxide, hyaluronic acid, and a combination thereof on cells, the substances were given to human primary fibroblasts, osteoblasts, and human umbilical vein endothelial cells (HUVEC) in vitro and compared to untreated cells and a dead control. For this purpose, cytotoxicity tests were performed according to ISO 10993-5 by measuring the cell viability quantitatively and […]. Additionally, biocompatibility tests were performed in the chorioallantoic membrane assay (CAM assay) in fertilized hen's eggs. All tests were repeated at least three times independently. In all tests 30 mg/mL hyaluronic acid and 0.256 mg/mL CaO2 were used. According to ISO 10993-5, cytotoxicity is defined by more than 30% reduction of the viable cell number by the substance.
Fibroblasts were obtained from human oral mucosa. Tissue samples were cut into small pieces of approximately 2×2 mm with a sterile disposable scalpel. […]
Cells were seeded into a 24-well-plate and they were given time to adhere overnight. […] Fluorescence was measured on a Fluorescence Microplate Reader (Fluoroskan Ascent Microplate reader, ThermoFisher Scientific, Waltham, MA, USA). Results were given as relative fluorescence using a 538 nm excitation filter and a 600 nm emission filter, normalized to untreated control.

[2] = system: human primary osteoblasts; type: cell-based; details: 30 mg/mL hyaluronic acid, 0.256 mg/mL CaO2; FIG. 2
Method: as §1
Primary human osteoblasts were isolated according to the following protocol. Human bone specimens were obtained during hip or knee joint replacement surgeries. […]
Cells were seeded into a 24-well-plate and they were given time to adhere overnight. […] Fluorescence was measured on a Fluorescence Microplate Reader (Fluoroskan Ascent Microplate reader, ThermoFisher Scientific, Waltham, MA, USA). […]

[3] = system: planktonic Streptococcus oralis ATCC 9811; experiment: Planktonic bacterial growth and metabolic activity of S. oralis; type: cell-based; details: for optical density at 600 nm (growth) compared to the control: 24 h anaerobic, FIG. 5 upper left
Method: According to FIG. 5, different concentrations of calcium peroxide were applied to mature biofilms in combination with hyaluronic acid. Calcium peroxide was added to planktonic bacterial strains S. oralis and P. gingivalis in concentrations ranging from 0 mg/L (control) to 500 mg/L with hyaluronic acid being present in a concentration of 11.550 mg/L. Shown in each case are the optical density at 600 nm, a parameter for the growth of a bacterial culture, and the relative metabolic activity. […] The autoclaved calcium peroxide (CaO2) (Sigma Aldrich, St. Louis, MO, US), ZnO2 and/or MgO2 was dissolved in sterile filtered, deionized, and autoclaved water. By serial dilutions with water (for planktonic experiments) or BHI/VitK (for biofilm experiments) the solutions were adjusted to concentration of 3.9-500 mg/l CaO2 for bacterial experiments. All solutions were freshly prepared for each experiment. Streptococcus oralis ATCC 9811 was obtained from the American Type Culture Collection (ATCC) and Porphyromonas gingivalis DSM 20709 derived from the German Collection of Microorganisms and Cell Cultures (DSMZ). The strains were grown under anaerobic conditions (80% N2, 10% H2, 10% CO2) at 37° C. for 24 h in 50 mL screw cap tube (Sarstedt, Nümbrecht, Germany) with Brain Heart Infusion Medium (BHI; Oxoid, Wesel, Germany) containing 10 μg/mL vitamin K (Roth, Karlsruhe, Germany; BHI/VitK) to obtain 24-hour-old precultures for further processing. In order to determine the influence of CaO2 on planktonic S. oralis and P. gingivalis, the 24-hour-old precultures were pelleted by centrifugation at 4,000 g for 15 min at 4° C., the supernatant was discarded and the bacterial pellets were resuspended in fresh double concentrated BHI/VitK medium (2×BH/VitK). The optical density was measured at 600 nm (OD600; BioPhotometer, Eppendorf, Hamburg, Germany), adjusted to 0.2 and dilute 1:10 with 2×BHI/VitK to 0.02. The freshly prepared CaO2 solution was mixed equally with the bacterial cultures (OD600=0.02) to a final OD600=0.01 and following final concentrations for CaO2: As positive controls, bacterial cultures (OD600=0.02) were mixed 1:2 with sterile filtered, deionized and autoclaved water (growth controls). […] To evaluate the effect of CaO2 on the growth of planktonic S. oralis and P. gingivalis cultures, the 24-h-old bacterial cultures were mixed and the optical density (OD600) was measured with a plate reader (Tecan, Mennedorf, Switzerland). Metabolic activity was measured using the BacTiter-Glo™ Microbial Viability Assay (Promega, Mannheim, Germany). […] After 5 min of incubation at room temperature under light protection, the samples were mixed again and the amount of adenosine triphosphate (ATP) was determined by measuring the luminescence using the plate reader. […]

[4] = system: planktonic Porphyromonas gingivalis DSM 20709; experiment: Planktonic bacterial growth and metabolic activity of P. gingivalis; type: cell-based; details: for relative metabolic activity compared to the control: FIG. 5 lower right; for optical density at 600 nm (growth) compared to the control: FIG. 5 top right
Method: According to FIG. 5, different concentrations of calcium peroxide were applied to mature biofilms in combination with hyaluronic acid. Calcium peroxide was added to planktonic bacterial strains S. oralis and P. gingivalis in concentrations ranging from 0 mg/L (control) to 500 mg/L with hyaluronic acid being present in a concentration of 11.550 mg/L. Shown in each case are the optical density at 600 nm, a parameter for the growth of a bacterial culture, and the relative metabolic activity. […] The autoclaved calcium peroxide (CaO2) (Sigma Aldrich, St. Louis, MO, US), ZnO2 and/or MgO2 was dissolved in sterile filtered, deionized, and autoclaved water. By serial dilutions with water (for planktonic experiments) or BHI/VitK (for biofilm experiments) the solutions were adjusted to concentration of 3.9-500 mg/l CaO2 for bacterial experiments. All solutions were freshly prepared for each experiment. Streptococcus oralis ATCC 9811 was obtained from the American Type Culture Collection (ATCC) and Porphyromonas gingivalis DSM 20709 derived from the German Collection of Microorganisms and Cell Cultures (DSMZ). The strains were grown under anaerobic conditions (80% N2, 10% H2, 10% CO2) at 37° C. for 24 h in 50 mL screw cap tube (Sarstedt, Nümbrecht, Germany) with Brain Heart Infusion Medium (BHI; Oxoid, Wesel, Germany) containing 10 μg/mL vitamin K (Roth, Karlsruhe, Germany; BHI/VitK) to obtain 24-hour-old precultures for further processing. In order to determine the influence of CaO2 on planktonic S. oralis and P. gingivalis, the 24-hour-old precultures were pelleted by centrifugation at 4,000 g for 15 min at 4° C., the supernatant was discarded and the bacterial pellets were resuspended in fresh double concentrated BHI/VitK medium (2×BH/VitK). The optical density was measured at 600 nm (OD600; BioPhotometer, Eppendorf, Hamburg, Germany), adjusted to 0.2 and dilute 1:10 with 2×BHI/VitK to 0.02. The freshly prepared CaO2 solution was mixed equally with the bacterial cultures (OD600=0.02) to a final OD600=0.01 and following final concentrations for CaO2: As positive controls, bacterial cultures (OD600=0.02) were mixed 1:2 with sterile filtered, deionized and autoclaved water (growth controls). As negative controls, 2×BHI/VitK was mixed equally with sterile filtered, deionized and autoclaved water (medium control) and the CaO2 solution was mixed 1:2 with 2×BHI/VitK (CaO2 solution control). Finally, 150 μL of each suspension was transferred into each well of a 96-well plate and cultivated for 24 h at 37° C. rotating (180 rpm) under anaerobic conditions (Anaerobic Jar and AnaeroGen; Oxoid, Wesel, Germany). All experiments were carried out in three biological and two technical replicates. To evaluate the effect of CaO2 on the growth of planktonic S. oralis and P. gingivalis cultures, the 24-h-old bacterial cultures were mixed and the optical density (OD600) was measured with a plate reader (Tecan, Mennedorf, Switzerland). Metabolic activity was measured using the BacTiter-Glo™ Microbial Viability Assay (Promega, Mannheim, Germany). 50 μL BacTiter-Glo™ reagent and 50 μL of the well-mixed bacterial cultures were added to opaque 96-well plates. After 5 min of incubation at room temperature under light protection, the samples were mixed again and the amount of adenosine triphosphate (ATP) was determined by measuring the luminescence using the plate reader. All results were normalized to the medium or CaO2 solution controls.

[5] = system: chorioallantoic membrane (CAM); type: in vivo
Method: as §1
Fertilized white Leghorn chicken eggs (LSL Rhein-Main GmbH, Dieburg, Germany) were incubated at 38° C. with constant humidity of 55 rH in an incubator (Type 3000 digital and fully automatic, Siepmann GmbH, Herdecke, Germany). For the first three days, eggs were placed horizontally on one side to ensure that the CAM would detach from the upwards pointing eggshell. On the embryonic development day (EDD) 3, eggs were prepared by removing 5-6 mL of the albumen in order to enlarge the space between eggshell and CAM. A small window of 3×2 cm was cut into the upwards pointing part of the eggshell. The window was covered with Parafilm® (Sigma-Aldrich, St. Louis, MO, USA) to prevent evaporation. On EDD-8, Gelaspon Strips (Bausch & Lomb Inc.; New York, USA) were cut in slices of 1×0.5×2 mm. 20 μl of each substance (512 mg/L CaO2, 10 mg/mL sodium hyaluronate, combination thereof) were added to the sponge. 20 μl of water was used as control. The further assessment of potential tissue adverse events was performed blinded. After 3 h, on EDD-10, and EDD-12, pictures were taken with a digital intravital fluorescence microscope (Olympus BXFM, Olympus Deutschland GmbH, Hamburg, Germany) at a 100-fold magnification using the cellSens Dimension software package.

Compound | reduction in cell viability [1] | viability after treatment in comparison to untreated osteoblasts (=100% cell viability) [2] | growth inhibition of S. oralis ([3]; calcium peroxide 125 mg/L) | optical density at 600 nm (growth) compared to the control ([3]; calcium peroxide 250 mg/L) | optical density at 600 nm (growth) compared to the control ([3]; calcium peroxide 500 mg/L) | relative metabolic activity compared to the control ([3]; calcium peroxide up to 500 mg/L, FIG. 5 lower left) | relative metabolic activity compared to the control ([4]; calcium peroxide 125 mg/L) | optical density at 600 nm (growth) compared to the control ([4]; calcium peroxide 125 mg/L) | relative metabolic activity compared to the control ([4]; calcium peroxide 250 mg/L) | optical density at 600 nm (growth) compared to the control ([4]; calcium peroxide 250 mg/L) | relative metabolic activity compared to the control ([4]; calcium peroxide 500 mg/L) | optical density at 600 nm (growth) compared to the control ([4]; calcium peroxide 500 mg/L) | adverse tissue reactions on the CAM ([5]; FIG. 4) | angiogenesis (area of the sponge covered by blood vessels) compared to untreated CAM tissue ([5]; FIG. 4A) | cytotoxic effect on the CAM ([5]; substance applied on sponge, FIGS. 4A and 4B) | adverse tissue reactions on the CAM ([5]; in vivo) | cytotoxic effect on the CAM ([5]; in vivo)
[Ca+2].[O-][O-] [calcium peroxide] | more than 30% | hardly showed a reduction | only very slightly inhibited | decreased significantly | decreased significantly | unchanged | significantly decreased | significantly decreased | significantly decreased | significantly decreased | significantly decreased | significantly decreased | no adverse tissue reactions | not significantly different | none of the tested substances had a cytotoxic effect | – | –
hyaluronic acid | – | – | – | – | – | – | – | – | – | – | – | – | – | – | – | no adverse tissue reactions | none of the tested substances had a cytotoxic effect
